The text below walks through data of patent US11034650B2, “Compounds useful for treating a Mannheimia haemolytica or Histophilus somni infection” (Intervet Inc., priority 2016, dated 2021).

Molecules are shown by their SMILES. In brackets after ≈: the same amount, converted by molar mass.

Assay type in all cases: cell-based
Assay [1] concerns Pasteurella multocida PM 10775 (080130003051, BRD field isolate). The assay is described as follows: MIC, broth-microdilution (CLSI VET01-A4), strain PM 10775. Particulars: Pasteurella multocida strain PM 10775, broth-microdilution; unit assumed. Put shortly: (§1)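 Test articles are arrayed as a twofold dilution range in microdilution trays. Wells are scored by naked eye, and the MIC is taken where turbidity first disappears.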
A general note: In broth dilution the organism is exposed to a series of concentrations in liquid medium.

For assay [2], the system named is Pasteurella multocida PM 6391 (ATCC 43137, reference strain). The assay is described as follows: MIC, broth-microdilution (CLSI VET01-A4), strain PM 6391. Particulars: Pasteurella multocida strain PM 6391, broth-microdilution; unit assumed. The procedure: For example, representative compounds were tested against ***, Mannheimia haemolytica and Pasteurella multocida, using the conventional broth-dilution assay.
The Minimum inhibitory concentrations (MIC) of compounds according to the invention for a number of veterinary bacterial pathogens were determined by the broth-microdilution method according to CLSI document VET01-A4.
Microdilution trays containing a doubling dilution series of the test compound were used for the tests. The MIC results were interpreted according to the CLSI documents VET01-S3. The lowest concentration of compound at which no visible growth (i.e. no turbidity) detected by the unaided eye was recorded as the MIC.

In assay [3] the test system is Mannheimia haemolytica MH 6357 (M7/2, reference strain, cattle infection strain). In words: MIC, broth-microdilution (CLSI VET01-A4), strain MH 6357. As to conditions: Mannheimia haemolytica strain MH 6357, broth-microdilution; unit assumed. The essentials:
as §1

The subject of assay [4] is Mannheimia haemolytica MH 13065 (XB0446-6003.9, BRD field isolate). The assay is described as follows: MIC, broth-microdilution (CLSI VET01-A4), strain MH 13065. As to conditions: Mannheimia haemolytica strain MH 13065, broth-microdilution; unit assumed. The essentials: as §1
For assay [5], the system named is Mannheimia haemolytica MH 10720 (154, BRD field isolate). The assay is described as follows: MIC, broth-microdilution (CLSI VET01-A4), strain MH 10720. Particulars: Mannheimia haemolytica strain MH 10720, broth-microdilution; unit assumed. The essentials: as §1
Assay [6] deals with Mannheimia haemolytica MH 6374 (ATCC 33396, reference strain). The assay is described as follows: MIC, broth-microdilution (CLSI VET01-A4), strain MH 6374. Particulars: Mannheimia haemolytica strain MH 6374, broth-microdilution; unit assumed. The essentials: as §1
Assay [7] concerns Mannheimia haemolytica MH 12587 (1071, BRD field isolate, macrolide-resistance: erm+, E+). The assay is described as follows: MIC, broth-microdilution (CLSI VET01-A4), strain MH 12587. Particulars: Mannheimia haemolytica strain MH 12587, broth-microdilution; unit assumed. Put shortly: as §1
The subject of assay [8] is Pasteurella multocida PM 6267 (P 2225 (L386), reference strain, mouse infection strain). The assay is described as follows: MIC, broth-microdilution (CLSI VET01-A4), strain PM 6267. Particulars: Pasteurella multocida strain PM 6267, broth-microdilution; unit assumed. Put shortly: as §1
The subject of assay [9] is Pasteurella multocida PM 12080 (IV102277-0093, BRD field isolate). In words: MIC, broth-microdilution (CLSI VET01-A4), strain PM 12080. As to conditions: Pasteurella multocida strain PM 12080, broth-microdilution; unit assumed. The essentials: as §1
Assay [10] deals with Mannheimia haemolytica MH 13093 (XB0472-6014.1, BRD field isolate). The assay is described as follows: MIC, broth-microdilution (CLSI VET01-A4), strain MH 13093. Particulars: Mannheimia haemolytica strain MH 13093, broth-microdilution; unit assumed. Put shortly: as §1

Turning to `CC(C)([C@H](NC(=O)c1ccc(C#Cc2ccc(CNCc3ccccn3)cc2)cc1)C(=O)NO)S(C)(=O)=O` [C.269], the MIC PM 10775 in assay [1] is no more than 0.1 µg/mL. This molecule yielded an MIC PM 6391 in assay [2] of no more than 0.1 µg/mL. The same molecule gave an MIC MH 6357 in assay [3] of 1.6 µg/mL (≈ 2.99 µM). In assay [4], this molecule had an MIC MH 13065 of 1.6 µg/mL (≈ 2.99 µM). In assay [5], this molecule returned an MIC MH 10720 of no more than 0.1 µg/mL. Besides, in assay [6], the MIC MH 6374 is 0.4 µg/mL (≈ 0.748 µM). Further, the MIC MH 12587 in assay [7] was determined as 1.6 µg/mL (≈ 2.99 µM). The MIC PM 6267 in assay [8] was no more than 0.1 µg/mL. Moreover, the MIC PM 12080 in assay [9] was no more than 0.1 µg/mL. Also, the MIC MH 13093 in assay [10] was determined as 0.8 µg/mL (≈ 1.5 µM).

As to `CC[C@H](C)[C@H](NC(=O)c1ccc(C#Cc2ccc(CNCC#N)cc2)cc1)C(=O)NO` [Compound 192], in assay [1], the MIC PM 10775 is no more than 0.1 µg/mL. This molecule showed an MIC MH 6357 in assay [3] of 0.8 µg/mL (≈ 1.91 µM). This molecule also had an MIC MH 13065 in [4] of 0.8 µg/mL (≈ 1.91 µM). The molecule also registered an MIC MH 10720 in [5] of 0.2 µg/mL (≈ 0.478 µM). Further, the MIC MH 6374 in assay [6] is 1.6 µg/mL (≈ 3.82 µM). Also, in assay [7], the MIC MH 12587 stood at 3.1 µg/mL (≈ 7.41 µM). This molecule had an MIC PM 6267 in [8] of no more than 0.1 µg/mL. Moreover, the MIC PM 12080 in assay [9] is no more than 0.1 µg/mL. Further, the MIC MH 13093 in assay [10] stood at 0.8 µg/mL (≈ 1.91 µM).

Turning to `CC[C@H](C)[C@H](NC(=O)c1ccc(C#Cc2ccc(CNC)cc2)cc1)C(=O)NO` [Compound 194], in assay [1], the MIC PM 10775 is no more than 0.1 µg/mL. In assay [2], this molecule came in with an MIC PM 6391 of 1.6 µg/mL (≈ 4.07 µM). In addition, the MIC MH 6357 in assay [3] came to 6.3 µg/mL (≈ 16 µM). In assay [4], this molecule yielded an MIC MH 13065 of 6.3 µg/mL (≈ 16 µM). This molecule also showed an MIC MH 6374 in [6] of 25 µg/mL (≈ 63.5 µM). In assay [7], this molecule had an MIC MH 12587 of 25 µg/mL (≈ 63.5 µM). The molecule further showed an MIC PM 6267 in [8] of 0.4 µg/mL (≈ 1.02 µM). In addition, in assay [9], the MIC PM 12080 is 1.6 µg/mL (≈ 4.07 µM). The MIC MH 13093 in [10] was 12.5 µg/mL (≈ 31.8 µM).

`CC(C)[C@H](NC(=O)c1ccc(C#Cc2ccc(CN3CCCOCC3)cc2)cc1)C(=O)NO` [Compound 202] had an MIC PM 10775 in [1] of no more than 0.1 µg/mL. The molecule also registered an MIC MH 6357 in assay [3] of 0.8 µg/mL (≈ 1.78 µM). In addition, the MIC MH 13065 in assay [4] is 1.6 µg/mL (≈ 3.56 µM). Further, the MIC MH 10720 in assay [5] came to 0.2 µg/mL (≈ 0.445 µM). In assay [6], this molecule gave an MIC MH 6374 of 3.1 µg/mL (≈ 6.9 µM). For the same molecule, the MIC MH 12587 in assay [7] was 3.1 µg/mL (≈ 6.9 µM). This molecule came in with an MIC PM 6267 in assay [8] of no more than 0.1 µg/mL. The molecule further had an MIC PM 12080 in assay [9] of no more than 0.1 µg/mL. The MIC MH 13093 in [10] worked out at 1.6 µg/mL (≈ 3.56 µM).

In [1], `COCCN(C)Cc1ccc(C#Cc2ccc(C(=O)N[C@H](C(=O)NO)C(C)C)cc2)cc1` [Compound 203] registered an MIC PM 10775 of no more than 0.1 µg/mL. In [3], this molecule yielded an MIC MH 6357 of 1.6 µg/mL (≈ 3.66 µM). In assay [4], this molecule displayed an MIC MH 13065 of 0.8 µg/mL (≈ 1.83 µM). Besides, the MIC MH 10720 in assay [5] is 0.2 µg/mL (≈ 0.457 µM). The same molecule showed an MIC MH 6374 in [6] of 1.6 µg/mL (≈ 3.66 µM). This molecule came in with an MIC MH 12587 in [7] of 3.1 µg/mL (≈ 7.09 µM). The MIC PM 6267 in assay [8] was no more than 0.1 µg/mL. The molecule also returned an MIC PM 12080 in assay [9] of no more than 0.1 µg/mL. In addition, the MIC MH 13093 in [10] is 1.6 µg/mL (≈ 3.66 µM).

Regarding `CC(C)[C@H](NC(=O)c1ccc(C#Cc2ccc(CNCC#N)cc2)cc1)C(=O)NO` [Compound 204], the MIC PM 10775 in assay [1] is no more than 0.1 µg/mL. In [3], this molecule gave an MIC MH 6357 of 0.4 µg/mL (≈ 0.989 µM). Also, the MIC MH 13065 in assay [4] came out at 0.2 µg/mL (≈ 0.494 µM). Besides, the MIC MH 10720 in assay [5] is no more than 0.1 µg/mL. This molecule also came in with an MIC MH 6374 in assay [6] of 0.4 µg/mL (≈ 0.989 µM). Moreover, in assay [7], the MIC MH 12587 worked out at 0.8 µg/mL (≈ 1.98 µM). Besides, the MIC PM 6267 in [8] is no more than 0.1 µg/mL. In addition, the MIC PM 12080 in [9] was no more than 0.1 µg/mL. The molecule also yielded an MIC MH 13093 in assay [10] of 0.4 µg/mL (≈ 0.989 µM).

As for `CC(C)(O)[C@H](NC(=O)c1ccc(C#Cc2ccc(CN3CCCC3)cc2)cc1)C(=O)NO` [Compound 225], the MIC PM 6391 in assay [2] is 0.8 µg/mL (≈ 1.84 µM). Also, the MIC MH 6357 in assay [3] is 12.5 µg/mL (≈ 28.7 µM). Moreover, the MIC MH 13065 in [4] was 12.5 µg/mL (≈ 28.7 µM). The molecule also came in with an MIC MH 10720 in assay [5] of 1.6 µg/mL (≈ 3.67 µM). For the same molecule, in assay [6], the MIC MH 6374 was 6.3 µg/mL (≈ 14.5 µM). The MIC MH 12587 in [7] was 12.5 µg/mL (≈ 28.7 µM). Besides, the MIC PM 6267 in assay [8] was no more than 0.1 µg/mL. In assay [9], this molecule returned an MIC PM 12080 of 0.8 µg/mL (≈ 1.84 µM). Also, the MIC MH 13093 in [10] amounted to 12.5 µg/mL (≈ 28.7 µM).
